Data as given in patent publication US5578639A, “PLA2 inhibitors and their use for inhibition of intestinal cholesterol absorption” (Warner-Lambert Company, priority 1995, dated 1996).
Where two headings read alike, the source gives them in different places.

Tests used:
plasma lipids = test: Plasma lipids in cholesterol-fed rats after oral PLA2 inhibitor; assay type: in vivo; details: 100 mg/kg oral gavage, about 8 hours after start of feeding
Experimental: Ultimately, agents that inhibit the absorption of dietary cholesterol should suppress postprandial increases in plasma cholesterol. This was tested with several. PLA2 inhibitors in cholesterol-fed rats. The general protocol consisted of preparing a carboxymethyl cellulose/Tween 20 dispersion of the compound of interest and administering it at a dose of 100 mg/kg by oral gavage to rats previously trained to meal-feed. Immediately following administration of the inhibitor, the rats were fed a lipid-rich meal of chow supplemented with cholesterol, peanut oil, and cholic acid.

porcine pancreatic PLA2 = target: T1, porcine pancreatic PLA2 (Sus scrofa, UniProt P00592); test: Fluorescence assay of porcine pancreatic PLA2 inhibition in vitro; assay type: biochemical
T1 construct: purchased Sigma Chemical Company (St. Louis, Mo.); host or cells: porcine pancreas
Text: The IC50 values for inhibition of porcine pancreatic PLA2, in vitro, are included for comparison with the in vivo activities.
A sensitive fluorescence method was used to measure the activity of pancreatic phospholipase A2 (PLA2) in vitro. PLA2 hydrolyzes the ester bond linking fatty acids to the sn-2 position in glycerophospholipids. Several types of PLA2 exist, including those isolated from venoms, synovial fluid, platelets, immunoactive cell types and the pancreas. The pancreatic PLA2 was the subject of this experiment because of its fundamental role in promoting lipid absorption in the intestine.
PLA2 activity was detected by the loss of pyrene excimer fluorescence that occurs when (1-pyrenyl)decanoic acid is hydrolysed from the sn-2 position of 1,2-bis-(1-pyrenedecanoyl)sn-glycero-3-phosphocholine ((P10)2 PC) by the action of PLA2. The use of similar pyrene-labeled PC substrates to detect PLA2 activity has been described previously (Radvanyi F., Jordan L., Russo-Marie F., Bon C., "A sensitive and continuous fluorometric assay for phospholipase A2 using pyrene-labeled phospholipids in the presence of serum albumin." Anal. Biochem., 177:103-109 (1989)). The full photophysical basis for the assay is described elsewhere (Birks J. B., "Photophysics of Aromatic Molecules," Wiley Interscience, New York, pp 301-371 (1970)).
In brief, pyrene excimers are formed by the complexation of one pyrene moiety in the ground-state with one pyrene moiety in the excited state to form an excited-state dimer (excimer) which fluoresces at longer wavelengths (475 nm emission maximum) than the wavelength range in which excited-state pyrene monomers fluoresce (370-400 nm). Excimer formation is dependent on the concentration of pyrene moieties. (P10)2 PC emits excimer fluorescence almost exclusively due to the fixed juxtaposition of the pyrene chromophores. The substrate concentration is sufficiently dilute so that excimer formation between the products of PLA2 action, namely lysoPY10PC and the (1-pyrenyl)decanoic acid, is insignificant.
In general, this assay scheme should have been applicable to the study of any type of PLA2. However, since pancreatic PLA2 is unique from the other PLA2 's in that it operates almost exclusively against micellized PC, the PC substrate in this assay was micellized with 1 mM deoxycholic acid. The PC component of the micelles consisted of 5 μM (P10)2 PC substrate diluted with a 99-fold excess (495 μM) of 1-oleyl-2-palmityl phosphatidylcholine (OPPC). The OPPC was inert to PLA2 hydrolysis because it contained ether-linked fatty alkyl chains in place of the ester-linked fatty acyl chains of normal PC. OPPC was included to 1) dilute the micellar (P10)2 PC concentration thereby minimizing intermolecular excimer formation, and 2) preserve the integrity of the micelles against the action of PLA2 since nonspecific micelle disruption could lead to nonlinear kinetics and fluorescence changes independent of lipolysis.
Phospholipase A2 (porcine pancreas), bovine serum albumin (BSA) (fraction V, essentially fatty acid-free) and sodium deoxycholate were obtained from Sigma Chemical Company, (St. Louis, Mo.). 1-Oleyl-2-palmityl-DL-phosphatidylcholine (OPPC) was ordered from Serdary Research Laboratories, Inc. (London, Ont., Canada). 1,2-Bis-(1-pyrenedecanoyl)-sn-glycero-3-phosphatidylcholine ((P10)2 PC) was obtained from Molecular Probes, Inc. (Eugene, Oreg.).
HEPES buffer (SHE) contained 150 mM NaCl, 20 mM HEPES (N-[2-hydroxyethyl]piperazine-N'-[2-ethanesulfonic acid]) and 1 mM EDTA (ethylenediamine tetraacetic acid) at pH 8.0.
1 mM (P10)2 PC in chloroform was prepared by adding 1 mL chloroform to a vial containing 1 mg of (P10)2 PC, as shipped by Molecular Probes. The actual concentration was determined spectrophotometrically by diluting 10 μL of the chloroform solution in 2 mL of ethanol. The absorbance spectrum of the ethanol solution was measured between 380 nm to 280 nm (Beckman DU-64). […]

PLA2 = details: methyl-phosphatidic acid substrate; Jain et al. 1992; read-out: IC50 in "scooting-mode" assay; cited from earlier work
[1] = tested on: intestinal lipid absorption; test: Lymph-fistula rats, diester and diether PC analogs; assay type: in vivo, rat
Text: The intestinal lipid absorption pathway was isolated in the rat by inserting an infusion cannula in the proximal duodenum and implanting a second cannula in the mesenteric lymph vessel to intercept the lipoprotein output from the intestine. This lymph-fistula rat model was used to investigate the effect of pancreatic PLA2 inhibition, in situ, on intestinal absorption of infused lipid emulsions. In a typical experiment, cannulae were implanted the day before the experimental infusion. Following surgery, the animals were infused (2.5 mL/hr) with isotonic saline containing dextrose to flush the GI tract and obtain basal levels of lymphatic lipid output. On the day of the experiment, infusion of the dextrose recovery solution was continued for 1 hour to collect a basal lymph fraction. At the start of the next hour, the intake of the duodenal infusion cannula was switched to a lipid emulsion of isotonic saline containing safflower oil (59 mM), cholesterol (5.2 mM), PC (3.3 mM) and taurocholic acid (1.9 mM). One hour lymph fractions were collected until the end of the experiment. The lipid content (mass) of lymph fractions was determined by HPLC with a mass-sensitive, evaporative light-scattering detector.
PC analogs in which the normal acyl chains are replaced by alkyl carbon chains linked to the glycerol backbone by ether bonds have physical-chemical properties similar to conventional diester PC molecules but are not hydrolyzable by PLA2. To determine the significance of micellar PC hydrolysis in intestinal lipid absorption, a comparison was made of the mesenteric lymph lipid output from rats infused with lipid microemulsions prepared with 1,2-dipalmitoyl PC (DPPC(ester)) or 1,2-dipalmityl PC (DPPC(ether)) as the PC constituent. […] The total lymphatic CE output over the 12-hour period of DPPC(ether) infusion was only 47% of total CE output obtained with the DPPC(ester) emulsion.

Caco-2 cells [2] = test: Caco-2 phospholipase A2-dependent cholesterol absorption, time course; assay type: cell-based, human
Caco-2 cells [3] = test: Caco-2 lipid absorption versus micellar phospholipid composition; assay type: cell-based, human
Experimental: Caco-2 cells were used as a tissue culture model of the human intestinal epithelium to compare the effects of phosphatidylcholine and lysophosphatidylcholine on lipid absorption and the subsequent re-esterification and secretion of micelle-derived lipids.
Caco-2 cell monolayers, grown on micropore membranes separating apical and basolateral culture solutions, were incubated with taurocholate, mixed-lipid micelles composed of 5 mM taurocholic acid, 300 μM monooleoylglycerol, 500 μM [^3 H]oleic acid, 100 μM [^14 C]cholesterol, and 200 μM phospholipid consisting of various proportions of 1-palmitoyl-2-oleoyl phosphatidylcholine and 1-palmitoyl lysophosphatidylcholine. The micelles were added to the apical side of the cell monolayers. Phospholipid-free micelles were also tested for comparison. At the end of 6 hours of incubation, the radiolabeled lipid content of the cells and in the basolateral media were determined. Phospholipid content strongly influenced the absorption and metabolism of cholesterol (FIGS. 1, 2) but had only minimal effects on fatty acid uptake and metabolism (FIG. 3). Caco-2 monolayers incubated with micelles containing only phosphatidylcholine as the phospholipid absorbed 65% less [^14 C]cholesterol than cell monolayers incubated with phospholipid-free micelles.

cholesterol absorption = details: Rampone and Long 1977; cited from earlier work
serum cholesterol = details: neomycin 1.5-2 g/day; β-sitosterol 3-50 g/day; cited from earlier work
[4] = porcine pancreatic PLA2, in vitro, read-out: In Vitro IC50 (porc. panc. PLA2)

T1 sequence (P00592 23-146): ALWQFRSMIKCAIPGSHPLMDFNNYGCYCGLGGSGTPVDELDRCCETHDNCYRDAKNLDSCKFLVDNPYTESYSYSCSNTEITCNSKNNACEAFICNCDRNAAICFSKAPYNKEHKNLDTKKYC

| IC50 (porcine pancreatic PLA2; [4]) [µM] | Compound | % Change in plasma lipids vs. Control: HDL Chol. (plasma lipids) [%] | % Change in plasma lipids vs. Control: Total Chol. (plasma lipids) [%] | % Change in plasma lipids vs. Control: non-HDL Chol. (plasma lipids) [%] | % Change in plasma lipids vs. Control: TG (plasma lipids) [%] | also measured |
| --- | --- | --- | --- | --- | --- | --- |
| 5.7 | 1-[4,4-bis(4-fluorophenyl)butyl]-3-(3-methoxyphenyl)-3-methyl-pyrrolidine [Compound C] | 38 | -30 | -49 |  |  |
| 2.2 | CCCCCCC(c1ccc(O)c(C)c1)c1ccc(O)c(C)c1 [Compound A, 4,4'-heptylidenebis-2-methyl-phenol] | 1 | -24 | -32 | -11 |  |
| 8.6 | Cc1ccc(Nc2cccc(Cl)c2)c(/C=C/C(=O)O)c1 [Compound F, 2-(M-chloroanilino)-5-methyl-trans-cinnamic acid] | 2 | -15 | -20 | -5 |  |
| 4.6 | Cc1ccc(Nc2ccccc2F)c(/C=C/C(=O)O)c1 [Compound G, 2-(O-fluoroanilino)-5-methyl-trans-cinnamic acid] | 15 | -12 | -21 | -24 |  |
|  | CCCCCCCCCCCCCCCCOCC(COP(=O)([O-])OCC[N+](C)(C)C)OCCCCCCCCCCCCCCCC (stereo not drawn) [DPPC(ether), 1,2-dipalmityl PC] |  |  |  |  | total lymphatic CE output relative to DPPC(ester) ([1]; 12-hour infusion): 47%; time until lymphatic cholesteryl ester output rose above basal ([1]; after initiation of lipid emulsion infusion): 8 h; onset of rise in lymphatic TG and PC output ([1]; following initiation of lipid infusion): not delayed; total lymphatic PC output relative to DPPC(ester) ([1]; infusion of lipid emulsion): 75%; total lymphatic TG output relative to DPPC(ester) ([1]; infusion of lipid emulsion): 71% |
|  | CCCCCCCCCCCCCCCC(=O)OCC(O)COP(=O)([O-])OCC[N+](C)(C)C (stereo not drawn) [lysophosphatidylcholine, 1-palmitoyl lysophosphatidylcholine] |  |  |  |  | [3H]oleate-labeled PC synthesis relative to phospholipid-free micelles (Caco-2 cells [2]): slight decrease; reversal of PC effect on cholesterol absorption (Caco-2 cells [3]; 6 hours, lysophosphatidylcholine substituted for phosphatidylcholine): reversed this effect, but only when the mole fraction of micellar lysophosphatidylcholine was greater than 50%; inhibition of cholesterol absorption by intestinal segments (cholesterol absorption): no inhibition |
|  | CCCCCCCCCCCCCCCCOCC(COP(=O)([O-])OCC[N+](C)(C)C)OCCCCCCCCCCCCCCCC (stereo not drawn) [nonhydrolyzable phospatidylcholine] |  |  |  |  | absorption of lipids into cells (figure legend) ([1]; FIG. 9, nonhydrolyzable phosphatidylcholine): prevents absorption of lipids into cells |
|  | CCCCCCCC/C=C\CCCCCCCC(=O)OC(COC(=O)CCCCCCCCCCCCCCC)COP(=O)([O-])OCC[N+](C)(C)C (stereo not drawn) [phosphatidylcholine, 1-palmitoyl-2-oleoyl phosphatidylcholine] |  |  |  |  | esterification of micellar [14C]cholesterol (Caco-2 cells [3]; FIG. 1C, micelles with 50% or more of choline lipid as PC): reduced to an even greater extent; inhibition at 200 µM (Caco-2 cells [3]; Homo sapiens, Caco-2, 6 h, read-out: [14C]cholesterol absorbed, reduction vs. phospholipid-free micelles): 65%; ACAT activity in cells (Caco-2 cells [3]; PC-containing micelles): diminished |
|  | Neomycin |  |  |  |  | reductions in serum cholesterol levels (serum cholesterol): up to 25% |

| Compound | IC50 (porcine pancreatic PLA2; [4]) [µM] | % Change in plasma lipids vs. Control: HDL Chol. (plasma lipids) [%] | % Change in plasma lipids vs. Control: Total Chol. (plasma lipids) [%] | % Change in plasma lipids vs. Control: non-HDL Chol. (plasma lipids) [%] | % Change in plasma lipids vs. Control: TG (plasma lipids) [%] | also measured |
| --- | --- | --- | --- | --- | --- | --- |
| CCCCCCCC/C=C\CCCCCCCC(N)=O [Compound E, (Z)-9-octadecen-amide, reference compound] | 2.4 | 2 | -42 | -56 | -35 | IC50 (PLA2): 0.1 µM; IC50 (porcine pancreatic PLA2; FIG. 12, (P10)2 PC substrate, read-out: IC50 in the fluorescence assay): 3 µM |
